Values quoted from earlier work as cited in US10392669B2, “Methods and systems for determination of an effective therapeutic regimen and drug discovery” (DNA-SEQ, INC., priority 2014, dated 2019).
Entries after “also recorded” stand apart in the source; their conditions may differ.

Key:
[1] = system: catalytic cores of kinases; conditions: cancer patients, bracketed literature reference; for Activating Mutations: known activating mutations within the kinase catalytic core listed for the drug; for Resistant Mutations: known resistance mutations within the kinase catalytic core listed for the drug
ERBB2 T798I = ERBB2 T798I (Homo sapiens, UniProt P04626, T798I); conditions: Gene ERBB2, Mutation T798I; full finding: Not reported to be in a before/after study, but does cause drug resistance
kinase DFG motif = conditions: crystal structure library

Structure (SMILES) | Activating Mutations [1] | Resistant Mutations [1] | further results
O=C(c1ccc(F)c(F)c1Nc1ccc(I)cc1F)N1CC(O)([C@@H]2CCCCN2)C1 [Cobimetinib] | Braf: V600 mutation [9] |  | 
C[C@@H](Oc1cc(-c2cnn(C3CCNCC3)c2)cnc1N)c1c(Cl)ccc(F)c1Cl [Crizotinib] | ALK: I117IN, R1275Q [10] |  | 
C#Cc1cccc(Nc2ncnc3cc(OCCOC)c(OCCOC)cc23)c1 [Erlotinib] | EGFR: L858R [12] |  | 
COc1cc2ncnc(Nc3ccc(F)c(Cl)c3)c2cc1OCCCN1CCOCC1 [Gefitinib] | EGFR: L858R, L861Q [14] |  | 
Cc1ccc(NC(=O)c2ccc(CN3CCN(C)CC3)cc2)cc1Nc1nccc(-c2cccnc2)n1 [Imatinib] |  | KIT: T670I; also recorded: ABL: T315I [17] | 
CS(=O)(=O)CCNCc1ccc(-c2ccc3ncnc(Nc4ccc(OCc5cccc(F)c5)c(Cl)c4)c3c2)o1 [Lapatinib] |  | HER2: L755S [18] | Finding (ERBB2 T798I): Not reported to be in a before/after
COc1cc2nccc(Oc3ccc(NC(=O)NC4CC4)c(Cl)c3)c2cc1C(N)=O [Lenvatinib] | RET: C634W, M918T [19] |  | 
Cc1cn(-c2cc(NC(=O)c3ccc(C)c(Nc4nccc(-c5cccnc5)n4)c3)cc(C(F)(F)F)c2)cn1 [Nilotinib] | BCR/ABL: F317L [3] |  | DFG conformation bound (kinase DFG motif): binds the DFG out conformation
C=CC(=O)Nc1cc(Nc2nccc(-c3cn(C)c4ccccc34)n2)c(OC)cc1N(C)CCN(C)C [Osimertinib] | EGFR: T790M [20] |  | 
CNC(=O)c1cc(Oc2ccc(NC(=O)Nc3ccc(Cl)c(C(F)(F)F)c3)cc2)ccn1 [Sorafenib] | PDGFRA: T674I [26] | FIP1LI-PDGFRA: D842V | 
